Measurements from ChEMBL document CHEMBL1255439 (2010).
Active and inactive are the calls of the source. The calls are words filed in the database; no cut-off is given here.

What was measured:
[1] = system: Burkholderia pseudomallei; assay: Antibacterial activity against Burkholderia pseudomallei 1026b infected in BALB/c mouse assessed as survival rate at 25 mg/kg, ip administered 6 hrs postinfection at 12 hrs interval for 3 days measured on day 20; format: functional; settings: route intraperitoneal
[2] = system: Burkholderia pseudomallei; assay: Antibacterial activity against Burkholderia pseudomallei 1026b infected in BALB/c mouse assessed as protection against bacterial infection at 25 mg/kg, ip administered as single dose 6 hrs postinfection; format: functional; settings: route intraperitoneal
[3] = system: Burkholderia pseudomallei; assay: Antibacterial activity against Burkholderia pseudomallei 1026b infected in mouse AMJ.2 cells assessed as inhibition of bacterial replication at <= 10 ug/ml after 24 hrs by serial dilution plating technique; format: functional, organism-based
[4] = system: Burkholderia pseudomallei; assay: Antibacterial activity against Burkholderia pseudomallei 1026b infected in mouse AMJ.2 cells assessed as decrease in intracellular bacterial growth at 10 ug/ml after 24 hrs by serial dilution plating technique in presence of 1 U/ml murine recombinant IFN-gamma; format: functional, organism-based
[5] = system: Burkholderia pseudomallei; assay: Antibacterial activity against Burkholderia pseudomallei 1026b infected in mouse AMJ.2 cells assessed as decrease in intracellular bacterial growth at 1 ug/ml after 24 hrs by serial dilution plating technique in presence of 100 U/ml murine recombinant IFN-gamma; format: functional, organism-based
[6] = system: Burkholderia pseudomallei; assay: Antibacterial activity against Burkholderia pseudomallei 1026b infected in mouse AMJ.2 cells assessed as intracellular bacterial count at 10 ug/ml measured on 24 hrs postinfection by serial dilution plating technique (reference value: 2 X 10^4 CFU/ml); format: functional
[7] = system: Burkholderia pseudomallei; assay: Antibacterial activity against Burkholderia pseudomallei 1026b infected in BALB/c mouse assessed as increase survival rate at 25 mg/kg, ip administered 6 hrs postinfection at 12 hrs interval for 3 days measured on day 20; format: functional, organism-based; design: dose 25 mg/kg
[8] = system: Burkholderia pseudomallei; assay: Antibacterial activity against Burkholderia pseudomallei 1026b infected in BALB/c mouse assessed as increase in survival rate at 25 mg/kg, ip administered 6 hrs postinfection at 12 hrs interval for 3 days measured on day 60 in presence of murine recombinant IFN-gamma; format: functional, organism-based; design: dose 25 mg/kg
[9] = system: Burkholderia pseudomallei; assay: Antibacterial activity against Burkholderia pseudomallei 1026b infected in BALB/c mouse assessed as decrease in bacterial count in spleen at 25 mg/kg, ip administered 6 hrs postinfection at 12 hrs interval for 3 days measured on day 65 in presence of murine recombinant IFN-gamma; format: functional, organism-based; design: dose 25 mg/kg

CC(C)(O/N=C(\C(=O)N[C@@H]1C(=O)N2C(C(=O)[O-])=C(C[n+]3ccccc3)CS[C@H]12)c1csc(N)n1)C(=O)O [CEFTAZIDIME]
Activity [1]: 10%
Activity [2]: 20%
inhibition [3]: inactive
inhibition [4]: Active
inhibition [5]: Active
CFU [6]: >1 ×10⁶ /ml
Activity [7]: inactive
Activity [8]: Active
inhibition [9]: Active
